Measured values reported in patent US20130065883A1 (Centro Nacional de Investigaceiones Oncologicas (CNIO), priority 2010, published 2013).
Read-outs that look alike come from different tables or passages of the source.

Assays:
[1] = Metabolic stability assay; format: in vitro ADME; settings: percentage metabolic stability in human liver microsomes
Procedure: The metabolic stability assay was performed in Wuxi. 1 μM, 15 min. The kinase selectivity testing was performed in ProQinase GmbH, Germany.

panel of 24 kinases = assay: Kinase selectivity testing (percentage inhibition of 24 kinases at 1 μM); format: biochemical; settings: proquinase; for % inhibiton at 1 uM CK1 Alpha 1: CK1 Alpha 1, 1 uM; for % inhibiton at 1 uM FGFR1: FGFR1, 1 uM; for % inhibiton at 1 uM JAK2: JAK2, 1 uM; for % inhibiton at 1 uM MEK1: MEK1, 1 uM; for % inhibiton at 1 uM RPS5 KA1: RPS5 KA1, 1 uM; for % inhibiton at 1 uM SGK1: SGK1, 1 uM; for % inhibiton at 1 uM AKT2: AKT2, 1 uM; for % inhibiton at 1 uM CHK1: CHK1, 1 uM; for % inhibiton at 1 uM PAK1: PAK1, 1 uM; for % inhibiton at 1 uM PDK1: PDK1, 1 uM; for % inhibiton at 1 uM PLK1: PLK1, 1 uM
PIM-1 = biological target: T1, PIM-1 (Homo sapiens, UniProt P11309); assay: PIM-1 biochemical assay (ADP Hunter); settings: read-out: PIM1 IC50;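 further: recombinant human PIM-1 carrying a C-terminal His tag, kinase activity quantified via ADP formed as the direct enzymatic product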
T1 construct: histidine tag (C); made in house
T1 sequence (P11309 whole entry): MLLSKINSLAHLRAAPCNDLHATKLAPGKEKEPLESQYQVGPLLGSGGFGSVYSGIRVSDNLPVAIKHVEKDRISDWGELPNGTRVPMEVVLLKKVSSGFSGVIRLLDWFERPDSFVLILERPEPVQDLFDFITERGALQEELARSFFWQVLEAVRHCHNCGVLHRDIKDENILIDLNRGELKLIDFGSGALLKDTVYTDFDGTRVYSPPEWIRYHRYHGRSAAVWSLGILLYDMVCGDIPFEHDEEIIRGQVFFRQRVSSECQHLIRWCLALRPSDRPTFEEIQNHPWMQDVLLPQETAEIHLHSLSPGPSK

PIM-2 = biological target: T2, PIM-2 (Homo sapiens, UniProt Q9P1W9); assay: PIM-2 biochemical assay (ADP Hunter); settings: semi-quantitative class; read-out: PIM2 IC50;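 further: recombinant N-terminally His-tagged human enzyme, kinase activity quantified by detection of ADP formed as the direct reaction product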
T2 construct: histidine tag (N); made in house
T2 sequence (Q9P1W9 whole entry): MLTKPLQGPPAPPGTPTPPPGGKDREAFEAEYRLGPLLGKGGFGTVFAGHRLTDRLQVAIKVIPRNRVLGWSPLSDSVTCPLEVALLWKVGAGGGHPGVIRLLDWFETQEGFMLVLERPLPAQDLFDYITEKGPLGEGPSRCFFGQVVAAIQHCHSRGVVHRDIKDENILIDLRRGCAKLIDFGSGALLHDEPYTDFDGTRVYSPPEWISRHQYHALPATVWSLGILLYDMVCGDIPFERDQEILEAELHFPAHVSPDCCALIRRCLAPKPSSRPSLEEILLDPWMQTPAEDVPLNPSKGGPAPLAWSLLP

PIM-3 = biological target: T3, PIM-3 (Homo sapiens, UniProt Q86V86); assay: PIM-3 biochemical assay (ADP Hunter); settings: read-out: PIM3 IC50;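 further: kinase activity read out as the quantity of ADP generated by the enzyme reaction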
T3 construct: purchased Millipore 14-738

FLT3 = biological target: T4, FLT3 (Homo sapiens, UniProt P36888); assay: FLT3 biochemical assay (ADP Hunter);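 further: FLT3 enzymatic activity quantified through the ADP produced by the kinase reaction, detected with an ADP Hunter readout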
T4 sequence (P36888 27-993): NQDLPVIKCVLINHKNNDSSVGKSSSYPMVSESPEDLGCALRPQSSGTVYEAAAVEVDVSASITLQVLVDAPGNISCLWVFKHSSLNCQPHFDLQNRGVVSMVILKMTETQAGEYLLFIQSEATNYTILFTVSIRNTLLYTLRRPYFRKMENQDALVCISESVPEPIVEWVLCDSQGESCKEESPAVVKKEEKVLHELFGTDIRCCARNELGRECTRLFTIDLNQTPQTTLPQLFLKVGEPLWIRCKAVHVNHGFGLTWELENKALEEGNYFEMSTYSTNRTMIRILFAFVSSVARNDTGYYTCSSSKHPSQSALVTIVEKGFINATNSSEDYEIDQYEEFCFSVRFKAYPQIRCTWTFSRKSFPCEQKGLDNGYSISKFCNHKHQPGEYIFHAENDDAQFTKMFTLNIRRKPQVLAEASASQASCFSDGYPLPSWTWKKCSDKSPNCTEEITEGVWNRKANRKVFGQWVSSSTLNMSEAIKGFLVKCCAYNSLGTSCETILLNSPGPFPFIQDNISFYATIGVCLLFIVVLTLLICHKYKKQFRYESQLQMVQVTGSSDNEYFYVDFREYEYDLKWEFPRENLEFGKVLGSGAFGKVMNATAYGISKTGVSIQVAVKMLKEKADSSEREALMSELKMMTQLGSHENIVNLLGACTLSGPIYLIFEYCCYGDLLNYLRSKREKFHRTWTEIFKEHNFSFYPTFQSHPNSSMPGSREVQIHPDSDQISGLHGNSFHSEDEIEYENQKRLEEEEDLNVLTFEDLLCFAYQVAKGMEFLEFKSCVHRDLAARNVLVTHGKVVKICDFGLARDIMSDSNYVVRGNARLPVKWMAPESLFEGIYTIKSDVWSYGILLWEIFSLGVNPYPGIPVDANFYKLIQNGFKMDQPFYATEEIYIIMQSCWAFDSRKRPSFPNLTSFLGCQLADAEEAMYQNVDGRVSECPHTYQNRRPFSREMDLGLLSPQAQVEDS

tumor cell lines = assay: Combination assay (MTT in vitro cell proliferation, combination index); format: cell-based
[2] = system: H1299 cells overexpressing Pim1 (H1299Pim1); assay: BAD S112 phosphorylation inhibition assay (In Cell ELISA); format: cell-based; settings: Homo sapiens, NCI-H1299, inhibition of Bad-phosphorylation, read-out: Cell assay BAD_P H1299 PIM1
[3] = actual IC50 value in parentheses
[4] = Jeko-1, combined with lapatinib

Row | Stability in HLM [1] [%] | % inhibiton at 1 uM B_RAF V600E (panel of 24 kinases) [%] | % inhibiton at 1 uM CK1 Alpha 1 (panel of 24 kinases) [%] | % inhibiton at 1 uM DYRK 1A (panel of 24 kinases) [%] | % inhibiton at 1 uM EGF_R (panel of 24 kinases) [%] | % inhibiton at 1 uM FAK (panel of 24 kinases) [%] | % inhibiton at 1 uM FGFR1 (panel of 24 kinases) [%] | % inhibiton at 1 uM IGF1_R (panel of 24 kinases) [%] | % inhibiton at 1 uM IKK BETA (panel of 24 kinases) [%] | % inhibiton at 1 uM INS_R (panel of 24 kinases) [%] | % inhibiton at 1 uM JAK2 (panel of 24 kinases) [%] | % inhibiton at 1 uM KIT (panel of 24 kinases) [%] | % inhibiton at 1 uM MEK1 (panel of 24 kinases) [%] | % inhibiton at 1 uM MET (panel of 24 kinases) [%] | % inhibiton at 1 uM PDGFR Alpha (panel of 24 kinases) [%] | % inhibiton at 1 uM RPS5 KA1 (panel of 24 kinases) [%] | % inhibiton at 1 uM SGK1 (panel of 24 kinases) [%] | % inhibiton at 1 uM AKT2 (panel of 24 kinases) [%] | % inhibiton at 1 uM CDK8 CYCC (panel of 24 kinases) [%] | % inhibiton at 1 uM CHK1 (panel of 24 kinases) [%] | Structure (SMILES) | other results
1 | 43.6 | 6 | 2 | 3 | 9 | 6 | 0 | 8 | 4 | 7 | 15 | 2 | 0 | 0 | 0 | 0 | 3 |  |  |  | OC1CCC(Nc2ccc3nnn(-c4cccc(OC(F)(F)F)c4)c3n2)CC1 (stereo in doubt) [2-47] | 
2 | 92.15 | 11 | 0 | 18 | 13 | 27 | 0 | 25 | 0 | 5 | 0 | 58 | 0 | 2 | 49 | 11 | 7 | 0 | 0 | 11 | FC(F)(F)Oc1cccc(-n2nnc3ccc(NCC4CC5(CCNCC5)C4)nc32)c1 [2-67] | % inhibiton at 1 uM PAK1 (panel of 24 kinases): 3%; % inhibiton at 1 uM PDK1 (panel of 24 kinases): 0%; % inhibiton at 1 uM SRC (panel of 24 kinases): 16%

More lines, now with the values behind:

Row | Structure (SMILES) | Stability in HLM [1] [%] | % inhibiton at 1 uM B_RAF V600E (panel of 24 kinases) [%] | % inhibiton at 1 uM CK1 Alpha 1 (panel of 24 kinases) [%] | % inhibiton at 1 uM DYRK 1A (panel of 24 kinases) [%] | % inhibiton at 1 uM EGF_R (panel of 24 kinases) [%] | % inhibiton at 1 uM FAK (panel of 24 kinases) [%] | % inhibiton at 1 uM FGFR1 (panel of 24 kinases) [%] | % inhibiton at 1 uM IGF1_R (panel of 24 kinases) [%] | % inhibiton at 1 uM IKK BETA (panel of 24 kinases) [%] | % inhibiton at 1 uM INS_R (panel of 24 kinases) [%] | % inhibiton at 1 uM JAK2 (panel of 24 kinases) [%] | % inhibiton at 1 uM KIT (panel of 24 kinases) [%] | % inhibiton at 1 uM MEK1 (panel of 24 kinases) [%] | % inhibiton at 1 uM MET (panel of 24 kinases) [%] | % inhibiton at 1 uM PDGFR Alpha (panel of 24 kinases) [%] | % inhibiton at 1 uM RPS5 KA1 (panel of 24 kinases) [%] | % inhibiton at 1 uM SGK1 (panel of 24 kinases) [%] | % inhibiton at 1 uM AKT2 (panel of 24 kinases) [%] | % inhibiton at 1 uM CDK8 CYCC (panel of 24 kinases) [%] | % inhibiton at 1 uM CHK1 (panel of 24 kinases) [%] | other results
3 | FC(F)(F)Oc1cccc(-n2nnc3ccc(NCC4CCNCC4)nc32)c1 [2-21] | 97.95 |  |  |  |  |  |  |  |  |  |  |  |  |  |  |  |  |  |  |  | 
4 | CN1CCC(CNc2nc3c(cc2Cl)nnn3-c2cccc(OC(F)(F)F)c2)CC1 [2-55, [6-chloro-3-(3-trifluoromethoxy-phenyl)-3H-[1,2,3]triazolo[4,5-b]pyridin-5-yl]-(1-methyl-piperidin-4-ylmethyl)-amine] |  |  |  |  |  |  |  |  |  |  |  |  |  |  |  |  |  |  |  |  | IC50 (PIM-1; [3]): 90 nM; IC50 (PIM-1; semi-quantitative class): < 100 nM; IC50 (PIM-2): > 1000 nM; IC50 (PIM-3; semi-quantitative class): > 1000 nM; IC50 (FLT3; semi-quantitative class): 100 to 1000 nM; Combination Index (CI) (tumor cell lines; [4]): 0.15; Synergy (tumor cell lines; [4]): +++ (0.1 < CI < 0.3 (+++)); Combination Index (CI) (tumor cell lines; MV4:11, combined with GDC-0941): 0.35; Synergy (tumor cell lines; MV4:11, combined with GDC-0941): ++ (0.3 < CI < 0.7 (++))
5 | FC(F)(F)Oc1cccc(-n2nnc3ccc(N4CCCC5(CCCN5)CC4)nc32)c1 (stereo not shown) [2-65] | 88.9 | 3 | 0 | 12 | 12 | 31 | 22 | 21 | 0 | 12 | 8 | 63 | 13 | 11 | 57 | 10 | 0 | 0 | 2 | 7 | IC50 (PIM-1; [3]): 2 nM; IC50 (PIM-1; semi-quantitative class): < 100 nM; IC50 (PIM-2): 100 to 1000 nM; IC50 (PIM-3; [3]): 6 nM; IC50 (PIM-3; semi-quantitative class): < 100 nM; IC50 (FLT3; [3]): 28 nM; IC50 (FLT3; semi-quantitative class): < 100 nM; % inhibiton at 1 uM PAK1 (panel of 24 kinases): 0%; % inhibiton at 1 uM PDK1 (panel of 24 kinases): 0%; % inhibiton at 1 uM SRC (panel of 24 kinases): 33%
6 | FC(F)(F)Oc1cccc(-n2nnc3ccc(NC4CC5(CCNCC5)C4)nc32)c1 [2-66] | 91.1 | 15 | 0 | 30 | 18 | 19 | 4 | 16 | 5 | 7 | 3 | 30 | 0 | 3 | 12 | 19 | 2 | 0 | 3 | 13 | % inhibiton at 1 uM PAK1 (panel of 24 kinases): 11%; % inhibiton at 1 uM PDK1 (panel of 24 kinases): 4%; % inhibiton at 1 uM SRC (panel of 24 kinases): 28%
7 | FC(F)(F)c1cccc(-n2nnc3cc(Cl)c(NCC4CCNCC4)nc32)c1 [2-83] | 112.7 | 11 | 3 | 7 | 8 | 16 | 39 | 13 | 0 | 6 | 1 | 26 | 2 | 0 | 14 | 36 | 6 | 0 | 14 | 6 | IC50 (PIM-1; [3]): 21 nM; IC50 (PIM-1; semi-quantitative class): < 100 nM; IC50 (PIM-2): > 1000 nM; IC50 (PIM-3; [3]): 6 nM; IC50 (PIM-3; semi-quantitative class): < 100 nM; IC50 (FLT3; [3]): 94 nM; IC50 (FLT3; semi-quantitative class): < 100 nM; EC50 [2]: 458 nM; % inhibiton at 1 uM PAK1 (panel of 24 kinases): 11%; % inhibiton at 1 uM PDK1 (panel of 24 kinases): 3%; % inhibiton at 1 uM PLK1 (panel of 24 kinases): 0%; % inhibiton at 1 uM SRC (panel of 24 kinases): 24%
8 | O[C@H]1CC[C@@H](Nc2nc3c(cc2Cl)nnn3-c2cccc(OC(F)(F)F)c2)CC1 [2-85] |  |  |  |  |  |  |  |  |  |  |  |  |  |  |  |  |  |  |  |  | IC50 (PIM-1; [3]): 74 nM; IC50 (PIM-1; semi-quantitative class): < 100 nM; IC50 (PIM-2): 100 to 1000 nM; IC50 (PIM-3; semi-quantitative class): 100 to 1000 nM; IC50 (FLT3; semi-quantitative class): 100 to 1000 nM; EC50 [2]: 262 nM
9 | COc1cc(NCC2CCNCC2)nc2c1nnn2-c1cccc(N(C)C)c1 [2-87] | 86.25 | 0 | 5 | 1 | 0 | 6 | 6 | 0 | 0 | 0 | 1 | 10 | 7 | 0 | 0 | 12 | 9 | 4 | 0 | 3 | EC50 [2]: 100 nM; % inhibiton at 1 uM PAK1 (panel of 24 kinases): 10%; % inhibiton at 1 uM PDK1 (panel of 24 kinases): 9%; % inhibiton at 1 uM PLK1 (panel of 24 kinases): 2%; % inhibiton at 1 uM SRC (panel of 24 kinases): 0%
